Test results published in PubChem BioAssay AID330 (DTP/NCI, 2004).
Where “and” joins values, the source holds several entries; their conditions need not be identical. Equal values may be shown once. Toxic doses and inconclusive results are not listed. The calls were made as follows: active = survival T/C of 150% or more; inactive = T/C below 125% in these data.

Tested on: P388 leukemia ip, CD2F1 mice, survival T/C
Assay: NCI In Vivo Anticancer Drug Screen. Data for tumor model P388 Leukemia (intraperitoneal) in CD2F1 (CDF1) mice
Conditions: endpoint: median survival time, higher = longer survival
How it was run: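 Mice carrying the transplanted tumor received test compound or vehicle. Survival was recorded in each group, and the value is the treated-group measurement divided by that of the vehicle-treated control group.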

[1] = dose: 50.0 mg/kg/injection, schedule: Q01DX009 (ip), vehicle: saline
[2] = dose: 100.0 mg/kg/injection, schedule: Q01DX009 (ip), vehicle: saline

Measured: T/C

ClC(Cl)(Cl)c1cccc(C(Cl)(Cl)Cl)c1
inactive: dose: 132.0 mg/kg/injection, schedule: Q04DX003 (ip), vehicle: Klucel (hydroxypropylcellulose) (HPC) 113 % of control | dose: 200.0 mg/kg/injection, schedule: Q04DX003 (ip), vehicle: Klucel (hydroxypropylcellulose) (HPC) 100 % of control | dose: 264.0 mg/kg/injection, schedule: Q04DX003 (ip), vehicle: saline with Tween-80 95 % of control | dose: 300.0 mg/kg/injection, schedule: Q04DX003 (ip), vehicle: Klucel (hydroxypropylcellulose) (HPC) 113 % of control | dose: 400.0 mg/kg/injection, schedule: Q04DX003 (ip), vehicle: saline with Tween-80 91 % of control | dose: 600.0 mg/kg/injection, schedule: Q04DX003 (ip), vehicle: saline with Tween-80 108 % of control

CCNC(=S)N/N=C\C=N/NC(=S)NCC
inactive: dose: 75.0 mg/kg/injection, schedule: Q01DX009 (ip), vehicle: saline with Tween-80 105 % of control | dose: 150.0 mg/kg/injection, schedule: Q01DX009 (ip), vehicle: saline with Tween-80 92 % of control | dose: 300.0 mg/kg/injection, schedule: Q01DX009 (ip), vehicle: saline with Tween-80 103 % of control

N#CC1(NO)CCCC1
inactive: [1] 94 % of control | [2] 98 % of control | dose: 200.0 mg/kg/injection, schedule: Q01DX009 (ip), vehicle: saline 89 % of control

CN(C)c1ccc(C=NCCC[Si]23OCCN(CCO2)CCO3)cc1
inactive: dose: 50.0 mg/kg/injection, schedule: Q01DX005 (ip), vehicle: Klucel (hydroxypropylcellulose) (HPC) 106 % of control | dose: 100.0 mg/kg/injection, schedule: Q01DX005 (ip), vehicle: Klucel (hydroxypropylcellulose) (HPC) 100 % of control | dose: 200.0 mg/kg/injection, schedule: Q01DX005 (ip), vehicle: Klucel (hydroxypropylcellulose) (HPC) 111 % of control

CCCCCCCCCCCCC[N+](C)([O-])CCCCCC[N+](C)([O-])CCCCCCCCCCCCC (stereo unspecified)
inactive: dose: 12.5 mg/kg/injection, schedule: Q01DX009 (ip), vehicle: Klucel (hydroxypropylcellulose) (HPC) 100 % of control | dose: 25.0 mg/kg/injection, schedule: Q01DX009 (ip), vehicle: Klucel (hydroxypropylcellulose) (HPC) 93 % of control | dose: 50.0 mg/kg/injection, schedule: Q01DX009 (ip), vehicle: Klucel (hydroxypropylcellulose) (HPC) 101 % of control and 93 % of control

CC12CCC3C(CCC4CC(O)CCC43C)C1CC(C1(O)C(=O)Nc3ccccc31)C2=O (stereo unspecified)
inactive: dose: 25.0 mg/kg/injection, schedule: Q01DX009 (ip), vehicle: saline with Tween-80 94 % of control | dose: 50.0 mg/kg/injection, schedule: Q01DX009 (ip), vehicle: saline with Tween-80 88 % of control | dose: 100.0 mg/kg/injection, schedule: Q01DX009 (ip), vehicle: saline with Tween-80 94 % of control

O=[N+]([O-])c1ccc(NN=NCCF)cc1
inactive: dose: 0.44 mg/kg/injection, schedule: Q01DX005 (ip), vehicle: other 102 % of control and 94 % of control | dose: 0.88 mg/kg/injection, schedule: Q01DX005 (ip), vehicle: other 102 % of control and 94 % of control | dose: 1.75 mg/kg/injection, schedule: Q01DX005 (ip), vehicle: other 105 % of control and 124 % of control and 94 % of control | dose: 3.5 mg/kg/injection, schedule: Q01DX005 (ip), vehicle: other 100 % of control and 106 % of control and 94 % of control | dose: 7.0 mg/kg/injection, schedule: Q01DX005 (ip), vehicle: other 109 % of control

O=c1oc2c(cc1Cl)CCc1ccccc1-2
inactive: dose: 50.0 mg/kg/injection, schedule: Q01DX005 (ip), vehicle: saline with Tween-80 104 % of control | dose: 100.0 mg/kg/injection, schedule: Q01DX005 (ip), vehicle: saline with Tween-80 102 % of control | dose: 200.0 mg/kg/injection, schedule: Q01DX005 (ip), vehicle: saline with Tween-80 97 % of control

CC1CCC(OC(=O)N(CCCl)N=O)CC1 (stereo unspecified)
inactive: dose: 3.12 mg/kg/injection, schedule: Q01DX001 (ip), vehicle: saline with Tween-80 100 % of control | dose: 6.25 mg/kg/injection, schedule: Q01DX001 (ip), vehicle: saline with Tween-80 108 % of control | dose: 12.5 mg/kg/injection, schedule: Q01DX001 (ip), vehicle: saline with Tween-80 111 % of control | dose: 25.0 mg/kg/injection, schedule: Q01DX001 (ip), vehicle: saline with Tween-80 118 % of control | dose: 50.0 mg/kg/injection, schedule: Q01DX001 (ip), vehicle: saline with Tween-80 105 % of control | dose: 100.0 mg/kg/injection, schedule: Q01DX001 (ip), vehicle: saline with Tween-80 114 % of control and 86 % of control | dose: 150.0 mg/kg/injection, schedule: Q01DX001 (ip), vehicle: saline with Tween-80 100 % of control

CCN(CCO)CC(O)Cn1cnc2ncnc(N)c21 (stereo unspecified) (tested in a mixture with another compound)
inactive: dose: 60.0 mg/kg/injection, schedule: Q01DX005 (ip), vehicle: Klucel (hydroxypropylcellulose) (HPC) 97 % of control | dose: 120.0 mg/kg/injection, schedule: Q01DX005 (ip), vehicle: Klucel (hydroxypropylcellulose) (HPC) 94 % of control | dose: 240.0 mg/kg/injection, schedule: Q01DX005 (ip), vehicle: Klucel (hydroxypropylcellulose) (HPC) 95 % of control

CC1=NN(c2ccccc2)C(=O)C1N=Nc1cc(Cl)cc(S(=O)(=O)O)c1O (stereo unspecified)
inactive: [1] 96 % of control | [2] 97 % of control
